Test results reported in the OligoGym collection.
Several values for one entry are separate records, joined by “and”; a condition that tells them apart may be missing. Identical values can stand only once. These antisense oligonucleotides have a phosphorothioate backbone; sugars and methylation of C are not fully specified.

Experiments:
Conditions in all cases: ASO
VCAM1 = biological target: VCAM1
ICAM1 = biological target: ICAM1
PDPK1 = biological target: PDPK1
Further: test concentration or dose not given here.

| Sequence | remaining target (mRNA or protein) (fraction of control) (ICAM1) | remaining target (mRNA or protein) (fraction of control) (PDPK1) | further results |
| --- | --- | --- | --- |
| CTTGAACAATTAATTCCACCT |  |  | remaining target (mRNA or protein) (fraction of control) (VCAM1): 0.37 |
| CGGGGGCTGCTGGGAGC | 0.76 |  |  |
| TCTGAGTAGCAGAGGAGCTCAG | 0.33 |  |  |
| TGGGAGCCATAGCGAGGC | 0.38 |  |  |
| CAAGTGTGCATCCCCCAGGC | 0 |  |  |
| GGTTGCAACTCTGAG | 0.36 |  |  |
| GGAGCTCAGCGTCGA | 0.85 |  |  |
| TGCCCATCAGGGCAGTTTGA | 0.4 |  |  |
| TGCTTACCCTCCCACAGCAG | 0.1 |  |  |
| GAGGCTGAGGTGGGAGGA | 0.98 |  |  |
| GAGTAGCAGAGGAGC | 0.61 |  |  |
| AGCTGCGCTGCTACCTGCAC | 0.25 |  |  |
| GCTTTCCCGGAAACCTCGCGC | 0.48 |  |  |
| CCTGTCCCGGGATAGGTTCA | 0.4 |  |  |
| GGGCGCGTGATCCTTATAGC | 0.8 |  |  |
| GGAGCCATAGCGAGGC | 0.35 |  |  |
| GATGCTACACATGTC | 0.58 |  |  |
| GGCAGAAATGTATGTGGGTGG | 0.68 |  |  |
| GCTTTCCCGGAAA | 0.82 |  |  |
| GCCCATTGCAGGGCCAGGGC | 0 |  |  |
| AGCGAGGCTGAG | 0.79 |  |  |
| CGAAGTTCTTGTGACCAA |  | ≥ 1 |  |
| CTTCCATTTCCTCACAGC |  | 0.33 |  |
| AAACTGGCTCAGGAGATT |  | 0.26 |  |
| GCATATTCTCTGGAGGTT |  | ≥ 1 |  |
| GGACTTCTCCGTGAGCAG |  | 0.28 |  |

| Sequence | remaining target (mRNA or protein) (fraction of control) (ICAM1) | remaining target (mRNA or protein) (fraction of control) (PDPK1) | further results |
| --- | --- | --- | --- |
| CTCTGAGTAGCAGAGGAGCTC | 0.17 |  |  |
| CATAGCGAGGCTGAGGTTGC | 0.39 |  |  |
| ATAGCGAGGC | ≥ 1 |  |  |
| TGGCTGGCAGGTGGTCTG |  | 0.2 |  |
| ATTTTCTACAAACTGGTG |  | 0.83 |  |
| AGCGAGGCTG | 0.97 |  |  |
| GGAAACCTCGCGC | 0.91 |  |  |
| GGGTTGAAGCCATTGCAGGG | 0.45 |  |  |
| CTGCTCTATGTTGCTGCC |  | 0.55 |  |
| TTTGTTGACAGGATCCAC |  | 0.72 |  |
| CTATGGAGGGCCACTTC | 0.39 |  |  |
| ACACATACACACACACACACA | 0.54 |  |  |
| CAAGAGCCCAAAGGTCTG |  | ≥ 1 |  |
| TTGGCCCTGGCTTGTTTG |  | 0.23 |  |
| GCGTCCTCCTCCCCGAAG |  | ≥ 1 |  |
| GGTGTGCTTTAAGAGGTC |  | 0.6 |  |
| CTGGTATCGCTGCCTCCA |  | 0.22 |  |
| AGCCATAGCGAGGC | 0.64 |  |  |
| TGAGCAGCTCTGGAGAAA |  | 0.85 |  |
| TTGCTGTTCCAAAATCTG |  | ≥ 1 |  |
| CGATGGGCAGTGGGAAAG | 0.95 |  |  |
| GGGCCACTTCTTCTGTAA | 0.33 |  |  |
| CCAGAGGAAGTGGCTGAGGG | 0.35 |  |  |
| TGCATCCCCCAGGCCACCAT | 0 |  |  |
| AGCCACCTGGGGGCCAAGGGG | ≥ 1 |  |  |
| TGATCCTTTATAGCGCTAGCC | 0.9 |  |  |

| Sequence | remaining target (mRNA or protein) (fraction of control) (ICAM1) | remaining target (mRNA or protein) (fraction of control) (PDPK1) | further results |
| --- | --- | --- | --- |
| GTGCTGGACTCAGTCTGG |  | 0.51 |  |
| GTTCAAAGGAGTTCGAGT |  | 0.5 |  |
| GGGGCGGTGCTGCTTTCCCGG | ≥ 1 |  |  |
| CCCCGACTCACCTGGGAACAG | 0.66 |  |  |
| AAAAGAGCCTTCCCCAAG |  | 0.88 |  |
| CAGTCTGGGTCCTCACCA |  | 0.54 |  |
| TCCTGTTAGGCGTGTGGA |  | 0.53 |  |
| AGGCGCGACATGACATCC |  | 0.25 |  |
| GAGGAGCTCAGCGTCGACTG | 0.83 and ≥ 1 |  |  |
| GCATGCTGCAGGGAGCCG |  | ≥ 1 |  |
| CACTGCACAGCGGCGTCC |  | ≥ 1 |  |
| ACTGGATGGGCACGGCGT |  | 0.63 |  |
| TGGCATCTAAAACCAAAA |  | ≥ 1 |  |
| ATTGTCATAATTGCCATA |  | 0.78 |  |
| AACTGGTGCCAAGGGTTT |  | 0.54 |  |
| CCCCCACCACTTCCCCTCTC | 0 |  |  |
| CTCTAAAGCAGACACAAT |  | 0.71 |  |
| CTCTGAGTAGCAGAGG | 0.76 |  |  |
| AAGGCCGAAATACAGCTT |  | 0.29 |  |
| CTGAGGTTGC | 0.95 |  |  |
| GCGTCGACTGGGGCGCGTGAT | 0.95 |  |  |
| TTTATGATATGTCGCTTC |  | ≥ 1 |  |
| CACATGTCTATGGAGGG | 0.89 |  |  |
| AGCGTCCTCCTCCCCGAA |  | 0.87 |  |
| GTCCCTGTGAATGATGCC |  | 0.24 |  |
| AACCTCGCGC | 0.96 |  |  |

| Sequence | remaining target (mRNA or protein) (fraction of control) (ICAM1) | remaining target (mRNA or protein) (fraction of control) (PDPK1) | further results |
| --- | --- | --- | --- |
| AAATAAACCCTTCCGCTT |  | 0.74 |  |
| CTCATCCAGCAGGCTCAGGG | 0.75 |  |  |
| CCCGGAAACCTCGCGC | 0.88 |  |  |
| TGGGAGCCATAGCGAG | 0.55 |  |  |
| GACACTCAATAAATAGCTGGT | 0.5 |  |  |
| TTGGGACAATGTCTCAGCTT | 0.25 |  |  |
| CCATAGCGAGGC | ≥ 1 |  |  |
| GCTACACATGTCTATGGAGGG | 0.35 |  |  |
| CCCCCACCACTTCCCCTCTCA | 0.07 |  |  |
| GGTCTCTTGCCTTAGGGA |  | 0.37 |  |
| CCAGCTCGGAATGGTGGG |  | 0.82 |  |
| TGCCAGTCCACATAGTGTTT | 0.25 |  |  |
| GGCTGAGGTTG | 0.9 |  |  |
| CAAGTACTCTAAAGCAGA |  | 0.65 |  |
| AGCCATAGCGAGGCTGAGGTT | 0.2 |  |  |
| GCAGGTGTCCTGGCAGCG |  | 0.49 |  |
| CCTGAAATGTGAAGTAAA |  | ≥ 1 |  |
| AAGGTCCCTGTGAATGAT |  | 0.39 |  |
| ATGTGGTCCTTCTGTGAG |  | ≥ 1 |  |
| TCTGAGTAGCAGAGGAGCTCA | 0.3 |  |  |
| TTGAGAAAGCTTTATTAACT | ≥ 1 |  |  |
| AACAACAACCTCTTCTCA |  | 0.7 |  |
| GTTTCCGCCAGCCTGCTT |  | ≥ 1 |  |
